Experimental data as given in US20150313897A1, “METHODS FOR TREATING PARKINSON'S DISEASE” (Teva Pharmaceuticals International GmbH, priority 2009, published 2015).
Entries after “also recorded” stand apart in the source; their conditions may differ.

Columns and labels:
Format in all cases: in vivo, rhesus monkeys
[1] = tested on: MPTP treated monkeys; test: Clinical Rating Scale (CRS) in primate model of Parkinson's Disease; details: NP201 at 1/9th of the oral dose; p<0.05
Method: In the MPTP Induction Phase, the monkeys were made bilaterally Parkinsonian with the use of MPTP. Monkeys received an initial dose of 0.3 mg/kg MPTP through a unilateral intracarotid injection and twice weekly injections of 0.3 mg/kg intravenous (i.v.) MPTP until they achieve a score of between 7.0 and 20.5 (e.g., 12 or higher) on the clinical rating scale with moderate bilateral Parkinsonism. Intravenous MPTP is administered at 3-5 day intervals. The actual cumulative number of i.v. MPTP injections is determined by the onset of stable bilateral symptoms. This protracted time course of i.v. MPTP administration allowed for development and evaluation of new Parkinsonian symptoms following each MPTP administration. […]
In the Experimentation Phase, the monkeys were assigned to one of three treatment groups: Group 1—oral ropinirole TID using the mean lowest effective dose determined in the Dose Finding Phase. […]
A Clinical Rating Scale for neurobehavioral examination was used to assess the clinical status of the monkeys under; normal, MPTP, and MPTP+treatment conditions, once per week, according to previously published protocols. […] Subjects were assessed once per week. All groups were assessed one hour after dosing. […] Occurrence of dyskinesia, psychological disturbances and vomiting were also recorded.

[2] = Ropinirole plasma levels (PK) after NP201 implant or TID oral ropinirole; details: oral ropinirole group relative to NP201
Method: (§1) In the Experimentation Phase, the monkeys were assigned to one of three treatment groups: Group 1—oral ropinirole TID using the mean lowest effective dose determined in the Dose Finding Phase. Group 2—NP201 releasing ropinirole at a dose of either approximately 1/9th or 1/18th of the total daily oral TID dose), e.g., for a single 1.00 mg/kg oral dose, the daily dose would be 3.00 mg/kg/day and the implant doses would then be 0.33 mg/kg/day or 0.17 mg/kg/day, respectively. Group 3—Control group will receive both a subcutaneous placebo implant and an oral placebo TID.
In order to collect Pharmacokinetic (“PK”) samples, monkeys were tranquilized with ketamine (7-10 mg/kg intramuscularly) in order to collect 1 cc of blood from the saphenous vein. Plasma samples were collected into appropriately labeled collection tubes. One cc blood samples were collected by catheter or venipuncture into EDTA collection tubes for ropinirole plasma concentrations by a validated HPLC with MS/MS detection. The plasma samples were frozen within two hours after collection and remained frozen until analyzed. PK Samples for the Dose Finding Phase (Oral dose) were drawn on days 1 and 14 at 60, 120, 180, 240 and 360 minutes after one oral dose of 1.0 mg/kg. PK Samples for the Experimentation Phase (NP201 implants) were drawn in all […] test groups in order to test the blood levels of ropinirole. […]

[3] = tested on: MPTP treated monkeys; test: Activity monitoring system (AMS), 12-hour light/dark cycle
Method: as §1
The activity monitoring system (“AMS”) records a 12-hour light/dark cycle. Each monkey was fitted with a monkey jacket that contained an activity monitor (Actitrac 1M Systems, Baltimore, Md.) in the inside back pocket. This activity monitor measured motion along its vertical and horizontal axes digitizing acceleration signals at a 40 Hertz sampling rate and stored the average acceleration value calculated during each consecutive time interval. The number of pulses was expressed for a pre-selected time period (1 minute). Data was collected continuously in 1-minute bins for a period of to 14 days. At the end of the period, the monkeys were again tranquilized with ketamine (15 mg/kg, intramuscularly), the activity monitor was removed and interfaced with a computer, and the data was downloaded. The data was expressed as the mean activity of each 12-hour light/dark cycle.

Compound: CCCN(CCC)CCc1cccc2c1CC(=O)N2 [oral ropinirole, 4-(2-di-n-propylaminoethyl)-2(3H)-indolone]
- CRS measure versus placebo [1]: statistically superior to placebo
- variability of plasma levels [2]: much greater variability
- activity levels, Sat-Sun (weekend) ([3]; days 10-42, versus pre-MPTP baseline and placebo, no active oral agent given on weekend days): resembled placebo with reduced activity relative to baseline; also recorded: indistinguishable from placebo
- activity levels, Wed-Fri ([3]; days 10-42, versus pre-MPTP baseline, oral: peak about 1 hour after each dose during wake cycle): exceeded baseline, pre-MPTP levels
- overall pattern of activity (12-hour light/dark cycles) ([3]; versus pre-MPTP baseline / healthy monkeys): alternating periods of very high activity interspersed with normal levels; also recorded: alternating periods of very high and normal activity
